Key:
Assay type in all cases: biochemical
cathepsin V = molecular target: T1, cathepsin V (Homo sapiens, UniProt O60911); assay: recombinant enzyme, fluorogenic substrate Cbz-FR-AMC, Morrison plot Ki
T1 construct: gene CTSV

cathepsin B = molecular target: T2, cathepsin B (Homo sapiens, UniProt P07858); assay: recombinant enzyme, fluorogenic substrate Cbz-RR-AMC, Morrison plot Ki
T2 construct: gene CTSB

cathepsin S = molecular target: T3, cathepsin S (Homo sapiens, UniProt P25774); assay: recombinant enzyme, fluorogenic substrate Cbz-VVR-AMC, Morrison plot Ki
T3 construct: gene CTSS

cathepsin K = molecular target: T4, cathepsin K (Homo sapiens, UniProt P43235); assay: recombinant enzyme, fluorogenic substrate Cbz-FR-AMC, Morrison plot Ki
T4 construct: gene CTSK
T4 sequence (P43235 115-329): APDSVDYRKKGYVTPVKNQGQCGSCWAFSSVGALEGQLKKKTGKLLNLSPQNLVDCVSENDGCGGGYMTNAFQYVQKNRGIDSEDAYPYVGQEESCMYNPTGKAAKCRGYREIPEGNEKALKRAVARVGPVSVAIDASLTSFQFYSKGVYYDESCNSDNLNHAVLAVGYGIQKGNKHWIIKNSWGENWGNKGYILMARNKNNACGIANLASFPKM

cathepsin L = molecular target: T5, cathepsin L (Homo sapiens, UniProt P07711); assay: recombinant enzyme, fluorogenic substrate Cbz-FR-AMC, Morrison plot Ki (limited activity)
T5 construct: gene CTSL
T5 sequence (P07711 114-288): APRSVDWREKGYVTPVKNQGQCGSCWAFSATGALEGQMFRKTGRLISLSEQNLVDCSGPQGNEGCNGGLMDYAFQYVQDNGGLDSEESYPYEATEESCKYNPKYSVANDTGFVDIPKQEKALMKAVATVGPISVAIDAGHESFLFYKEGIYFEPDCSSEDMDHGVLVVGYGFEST
T5 sequence (P07711 292-333): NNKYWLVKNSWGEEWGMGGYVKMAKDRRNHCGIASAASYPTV

T1 sequence (O60911 114-334): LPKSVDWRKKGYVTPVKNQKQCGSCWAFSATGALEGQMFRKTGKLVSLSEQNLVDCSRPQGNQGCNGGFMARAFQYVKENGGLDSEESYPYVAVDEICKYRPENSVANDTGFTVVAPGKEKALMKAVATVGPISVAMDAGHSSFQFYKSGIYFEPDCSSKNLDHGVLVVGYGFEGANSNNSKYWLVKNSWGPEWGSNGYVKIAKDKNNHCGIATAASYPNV
T3 sequence (P25774 115-331): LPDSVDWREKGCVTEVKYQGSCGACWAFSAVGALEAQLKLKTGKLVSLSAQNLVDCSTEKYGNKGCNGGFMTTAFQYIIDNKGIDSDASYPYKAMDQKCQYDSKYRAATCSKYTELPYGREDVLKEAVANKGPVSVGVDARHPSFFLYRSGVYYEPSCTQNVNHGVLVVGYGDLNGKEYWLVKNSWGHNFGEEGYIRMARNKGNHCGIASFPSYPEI

Molecule CS(=O)(=O)C[C@H](N[C@@H](c1ccc(F)cc1)C(F)(F)F)C(=O)NC1(C#N)CC1 [compound 6] has a Ki (cathepsin V) of 0.784 µM, a Ki (cathepsin B) of 1.94 µM and a Ki (cathepsin S) of 0.00271 µM. The Ki (cathepsin K) was 0.155 µM and the Ki (cathepsin L) was 7.87 µM.

— PMC4839156, “A bioavailable cathepsin S nitrile inhibitor abrogates tumor development” (Molecular Cancer, 2016)
